Test results published in US20170165253A1, “TREATMENT OF SEXUAL DYSFUNCTION AND FOR IMPROVED SEXUAL QUALITY OF LIFE” (ReJoy, priority 2015, published 2017).
“And” between values parts separate entries of the source, which are not always exact repeats. Equal entries are not always repeated. Structures can show the parent of a compound that is named as a salt.

What was measured:
[1] = IVRT Franz cell skin penetration, excised pig skin; type: in vitro ADME; conditions: for Penetration (%), Sample 1-3 / Penetration (%), Average: pig skin; for Penetration (%), Sample 1-3: single replicates, Hydrochloride
From the text: Transdermal penetration of a particular formulation can be assessed with in vitro release testing (IVRT) using a Franz cell. See Bartosova and Bajagar, “Transdermal Drug Delivery In Vitro Using Diffusion Cells,” Current Medicinal Chemistry, 2012, 19, 4671-4677.
In order to determine the dermal absorption and bioavailability of topically applied 10% Phenylephrine Hydrochloride solution, we used an IVRT experimental setup with both skin excised from pig ears and a synthetic skin model (Maine Manufacturing, LLC, Me., USA).
In the example, the following data was obtained from a Franz cell diffusion experiment using excised pigskin barrier. A 50 microliter aliquot of a phenylephrine solution was allowed to penetrate through 9 mm diameter sample of pigskin into a 5 mL reservoir of phosphate buffered saline. Phenylephrine concentration was determined in the reservoir by measuring the optical absorbance at 214 nm at time points subsequent to the application of the formulation. In the following example the test solution was 10% (w/w) phenylephrine, 10% (w/w) Dimethyl Isosorbide, and 80% (w/w) ethanol. From the data below, it can be concluded that the formulation can be deemed “successful” because 82% of the applied drug penetrated the pigskin membrane in 3 hours. The experiment was run in triplicate. The average of all three data is shown. It is envisioned that additional studies may be undertaken with other models of in vitro release testing or with variations of the same model to compare with the data reported below.

arrector pili muscle = conditions: 1% w/v, iontophoresis; cited from earlier work

average absorption per nipple-areola complex ([1]; 0.1 mL of 10% solution not removed for 24 hours): 8.3 mg | applied drug penetrated the pigskin membrane ([1]; 10% (w/w) in 10% Dimethyl Isosorbide, 80% ethanol, 3 hours): 82% | Penetration (%), Sample 1-3 ([1]; 10% solution, 50 microliter, 1 h): 32.3% and 2.1% and 0.7% | Penetration (%), Average ([1]; 10% solution, 1 h): 11.7% | Penetration (%), Average ([1]; 10% solution, 2 h): 61.1% | Penetration (%), Sample 1-3 ([1]; 10% solution, 2 h): 80.6% and 89.0% and 13.6% | Penetration (%), Average ([1]; 10% solution, 3 h): 82.8% | Penetration (%), Sample 1-3 ([1]; 10% solution, 3 h): 78.9% and 87.5% and 81.9% | Penetration (%), Average ([1]; 10% solution, 4 h): 81.0% | Penetration (%), Sample 1-3 ([1]; 10% solution, 4 h): 78.6% and 83.4% and 81.1% | Penetration (%), Average ([1]; 10% solution, 5 h): 81.9% | Penetration (%), Sample 1-3 ([1]; 10% solution, 5 h): 78.5% and 86.0% and 81.3% | Penetration (%), Average ([1]; 10% solution, 24 h): 81.6% | Penetration (%), Sample 1-3 ([1]; 10% solution, 24 h): 81.3% and 83.1% and 80.3% | maximal skin absorption in 24 hours ([1]; 10% solution, skin excised from pig ears): ≤ 83%
SMILES: CNC[C@H](O)c1cccc(O)c1 [Phenylephrine HCl, Phenylephrine Hydrochloride]
piloerection on the forearm (arrector pili muscle): can activate the piloerection on the forearm
